Some results are limits rather than exact numbers.

Sequence of full-length human BTK (Q06187 whole entry): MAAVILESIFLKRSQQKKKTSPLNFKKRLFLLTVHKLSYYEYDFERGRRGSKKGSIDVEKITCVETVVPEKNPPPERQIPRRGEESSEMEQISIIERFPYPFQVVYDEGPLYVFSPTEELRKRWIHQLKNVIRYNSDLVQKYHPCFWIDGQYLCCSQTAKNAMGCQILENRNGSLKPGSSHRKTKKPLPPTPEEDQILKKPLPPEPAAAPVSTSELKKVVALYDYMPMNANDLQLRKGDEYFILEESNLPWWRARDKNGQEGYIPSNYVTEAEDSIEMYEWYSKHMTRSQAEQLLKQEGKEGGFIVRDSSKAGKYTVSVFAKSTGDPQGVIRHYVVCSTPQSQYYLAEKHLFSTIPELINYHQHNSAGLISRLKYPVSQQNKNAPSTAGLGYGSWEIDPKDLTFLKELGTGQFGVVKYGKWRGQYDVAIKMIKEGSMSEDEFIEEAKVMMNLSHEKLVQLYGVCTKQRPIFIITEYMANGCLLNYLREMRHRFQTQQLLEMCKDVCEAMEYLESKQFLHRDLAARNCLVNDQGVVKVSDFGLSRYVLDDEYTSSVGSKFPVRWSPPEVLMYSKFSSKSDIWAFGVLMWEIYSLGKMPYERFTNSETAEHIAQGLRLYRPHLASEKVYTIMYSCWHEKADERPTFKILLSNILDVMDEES

In this assay the target is full-length human BTK (Homo sapiens (Human), UniProt Q06187). In words: BTK IC50 enzyme assay (microfluidic off-chip mobility shift kinase assay). Particulars: incubated for 90 min. at 27 C; read-out: Time Dependent BTK Enzyme Assay IC50. Type of assay: biochemical. On the procedure:
The following describes a microfluidic, off-chip mobility shift kinase assay used to measure inherent potency of compounds against BTK enzyme. Compounds described by embodiments of the present invention were assayed using this protocol and the data from the same is recorded in Table 2 within the column labeled: “Time Dependent BTK Enzyme Assay IC50”.
Stopped reactions were monitored at −2 PSI, −3000 V/−700 V in a LabChip 3000 plate reader from Caliper Life Sciences, a PerkinElmer Company (Hopkinton, Mass.), and the activity was measured by off-chip mobility shift assay measuring the charge/mass difference between substrate and product resulting from peptide phosphorylation. IC50 and efficacy were determined by plotting log [Inhibitor] vs. % Activity in GeneData Screener (Basel, Switzerland). […] I<1 uM and II>1 uM.
Take `C=CC(=O)NC12CCC(Nc3ncnc(N)c3-c3ccc(Oc4ccccc4)cc3)(C1)C2` [A177, N-(4-((6-amino-5-(4-phenoxyphenyl)pyrimidin-4-yl)amino)bicyclo[2.1.1]hexan-1-yl)acrylamide]: the IC50 (commonly the point on the concentration scale where inhibition reaches its midpoint) was under 100 nM.
In the case of `C=CC(=O)N1CCC(CNc2ncnc(N)c2-c2ccc(Oc3ccccn3)cc2)CC1` [A335, 1-(4-(((6-amino-5-(4-(pyridin-2-yloxy)phenyl)pyrimidin-4-yl)amino)methyl)piperidin-1-yl)prop-2-en-1-one], the IC50 is under 1000 nM.
Consider `Nc1cccc(-c2cnccc2Oc2ccc(Oc3ccccc3)cc2)c1` [A312, 3-(4-(4-phenoxyphenoxy)pyridin-3-yl)aniline], for which the concentration for half-maximal inhibition (IC50) was over 1000 nM.
Turning to `CN(C)C/C=C/C(=O)N1CCC2(CC(Nc3ncnc(N)c3-c3ccc(Oc4ccccc4)cc3)C2)C1` (stereo not shown) [A226, (E)-1-(2-((6-amino-5-(4-phenoxyphenyl)pyrimidin-4-yl)amino)-6-azaspiro[3.4]octan-6-yl)-4-(dimethylamino)but-2-en-1-one], the IC50 was under 1000 nM.
For `C=CC(=O)N1CC[C@@H](COc2ncnc(N)c2-c2cnn(Cc3ccccc3)c2)C1` [A196, (R)-1-(3-(((6-amino-5-(1-benzyl-1H-pyrazol-4-yl)pyrimidin-4-yl)oxy)methyl)pyrrolidin-1-yl)prop-2-en-1-one], the IC50 is under 1000 nM.
In the case of `CC#CC(=O)NCc1cccc(-c2cnccc2Oc2ccc(Oc3ccccc3)cc2)c1` [A304, N-(3-(4-(4-phenoxyphenoxy)pyridin-3-yl)benzyl)but-2-ynamide], the IC50 was over 1000 nM.
Take `C=C(C)C(=O)Nc1cccc(-c2cnccc2Oc2ccc(Oc3ccccc3)cc2)c1` [A322, N-(3-(4-(4-phenoxyphenoxy)pyridin-3-yl)phenyl)methacrylamide]: the IC50 was over 1000 nM.
As for `C=CC(=O)N1CCC(CNc2ncnc(N)c2-c2ccc(Oc3cccc(C(F)(F)F)c3)cc2)CC1` [A95, 1-(4-(((6-amino-5-(4-(3-(trifluoromethyl)phenoxy)phenyl)pyrimidin-4-yl)amino)methyl)piperidin-1-yl)prop-2-en-1-one], the IC50 is under 100 nM.
With `C=CC(=O)N1CCC(CNc2ncnc(N)c2-c2ccc(Oc3ccc(O)cc3)cc2)CC1` [A94, 1-(4-(((6-amino-5-(4-(4-hydroxyphenoxy)phenyl)pyrimidin-4-yl)amino)methyl)piperidin-1-yl)prop-2-en-1-one] the figure was over 1000 nM.
In the case of `C=CC(=O)Nc1cccc(Oc2ncnc(N)c2-c2ccc(OC(C)C)cc2)c1` [A289, N-(3-((6-amino-5-(4-isopropoxyphenyl)pyrimidin-4-yl)oxy)phenyl)acrylamide], the half-maximal inhibitory concentration (IC50) was under 1000 nM.
With `C=CC(=O)Nc1cccc(Oc2ncnc(N)c2-c2ccc(OCc3ccc(OC)cc3)cc2)c1` [A264, N-(3-((6-amino-5-(4-((4-methoxybenzyl)oxy)phenyl)pyrimidin-4-yl)oxy)phenyl)acrylamide] the figure was under 100 nM; with `C=CC(=O)N1CC2(CC(Nc3ncnc(N)c3-c3ccc(Oc4ccc(C#N)cc4)cc3)C2)C1` [A207, 4-(4-(4-((2-acryloyl-2-azaspiro[3.3]heptan-6-yl)amino)-6-aminopyrimidin-5-yl)phenoxy)benzonitrile], under 1000 nM; with `Nc1ncnc(Oc2cccc(NC(=O)/C=C/CN3CCOCC3)c2)c1-c1ccc(Oc2ccccc2)cc1` [A265, (E)-N-(3-((6-amino-5-(4-phenoxyphenyl)pyrimidin-4-yl)oxy)phenyl)-4-morpholinobut-2-enamide], under 100 nM.
Take `C=CC(=O)Nc1cccc(Oc2ncnc(N)c2-c2ccc(OCc3ccccc3)c(OC)c2)c1` [A256, N-(3-((6-amino-5-(4-(benzyloxy)-3-methoxyphenyl)pyrimidin-4-yl)oxy)phenyl)acrylamide]: the IC50 was under 100 nM.
With `CC=CC(=O)[C@H]1CCC[C@@H](Nc2ncnc(N)c2-c2ccc(Oc3ccccc3)cc2)C1` [A146, 1-((1S,3R)-3-(6-Amino-5-(4-phenoxyphenyl)-pyrimidin-4-ylamino)-cyclohexyl)-but-2-en-1-one] the figure was under 100 nM; with `C=CC(=O)N1CCC=C(c2c(N)ncnc2Nc2ccc(Oc3ccccc3)cc2)C1` [A273, 1-(3-(4-amino-6-((4-phenoxyphenyl)amino)pyrimidin-5-yl)-5,6-dihydropyridin-1(2H)-yl)prop-2-en-1-one], under 100 nM; with `C=CC(=O)Nc1cccc(Oc2ccnc(N)c2-c2ccc(Oc3ccccc3)cc2)c1` [A244, N-(3-((2-amino-3-(4-phenoxyphenyl)pyridin-4-yl)oxy)phenyl)acrylamide], under 100 nM.
`C/C=C/C(=O)Nc1cccc(-c2cnccc2Oc2ccc(Oc3ccccc3)cc2)c1` [A307, (E)-N-(3-(4-(4-phenoxyphenoxy)pyridin-3-yl)phenyl)but-2-enamide]: the IC50 is over 1000 nM.
With `C=CC(=O)N1CCC(CNc2ncnc(N)c2-c2ccc(OCc3ccccc3)cc2)CC1` [A292, 1-(4-(((6-amino-5-(4-(benzyloxy)phenyl)pyrimidin-4-yl)amino)methyl)piperidin-1-yl)prop-2-en-1-one], the IC50 is under 1000 nM.
For `C=CC(=O)N1CC2(CC(Oc3ncnc(N)c3-c3ccc(Oc4ccc(C#N)cc4)cc3)C2)C1` [A202, 4-(4-(4-((2-acryloyl-2-azaspiro[3.3]heptan-6-yl)oxy)-6-aminopyrimidin-5-yl)phenoxy)benzonitrile], the IC50 was under 100 nM.
With `C=CC(=O)N1CC2(CC(Nc3ncnc(N)c3-c3cnn(Cc4ccccc4)c3)C2)C1` [A107, 1-(6-((6-amino-5-(1-benzyl-1H-pyrazol-4-yl)pyrimidin-4-yl)amino)-2-azaspiro[3.3]heptan-2-yl)prop-2-en-1-one] the figure was under 1000 nM; with `C=CC(=O)Nc1cccc(Oc2ncnc(N)c2-c2ccc(Oc3ccccc3F)nc2)c1` [A165, N-(3-((6-amino-5-(6-(2-fluorophenoxy)pyridin-3-yl)pyrimidin-4-yl)oxy)phenyl)acrylamide], under 100 nM; with `C=CC(=O)N1CC2(CC(Oc3ncnc(N)c3-c3ccc(Oc4cccnc4)cc3)C2)C1` [A221, 1-(6-((6-amino-5-(4-(pyridin-3-yloxy)phenyl)pyrimidin-4-yl)oxy)-2-azaspiro[3.3]heptan-2-yl)prop-2-en-1-one], over 1000 nM.
Take `CN(C)C/C=C/C(=O)N1CCC(CNc2ncnc(N)c2-c2ccc(Oc3ccccc3)cc2)CC1` [A153, (E)-1-(4-(((6-amino-5-(4-phenoxyphenyl)pyrimidin-4-yl)amino)methyl)piperidin-1-yl)-4-(dimethylamino)but-2-en-1-one]: the IC50 is under 1000 nM.
Consider `C=CC(=O)Nc1cccc(Oc2ncnc(N)c2-c2ccc(F)c(OC)c2)c1` [A277, N-(3-((6-amino-5-(4-fluoro-3-methoxyphenyl)pyrimidin-4-yl)oxy)phenyl)acrylamide], for which the IC50 was under 100 nM.
With `C=CC(=O)N1CCC(CNc2ncnc(N)c2-c2ccc(Oc3ccc(C)cc3)cc2)CC1` [A98] the figure was under 100 nM.
With `C=CC(=O)Nc1cccc(Oc2ncnc(N)c2-c2ccc(Oc3ccc(F)cc3)nc2)c1` [A166, N-(3-((6-amino-5-(6-(4-fluorophenoxy)pyridin-3-yl)pyrimidin-4-yl)oxy)phenyl)acrylamide] the figure was under 1000 nM; with `C=CC(=O)N1CCO[C@H](COc2ncnc(N)c2-c2ccc(Oc3ccccc3)cc2)C1` [A65, (S)-1-(2-(((6-amino-5-(4-phenoxyphenyl)pyrimidin-4-yl)oxy)methyl)morpholino)prop-2-en-1-one], under 100 nM.
